Data reported in PubChem BioAssay AID2060338 (Molecular Pharmacology Branch, DTP, NCI, 2025).
“And” between values parts separate entries of the source, which are not always exact repeats. Equal values may be shown once.

System: 556581-035-R-J1-PDC spheroids with HUVEC/MSC, viability
Experiment: Anticancer human tumor 556581-035-R-J1-PDC patient-derived ovarian carcinoma cell line growth inhibition [IpAb]
Details: for viability, T/C: stronger effect = lower value
Summary of the method: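 Combinations with ipatasertib or abemaciclib were tested on tumour spheroids holding HUVEC (25%) and MSC (15%) alongside 60% malignant cells. Top concentration was at or near clinical Cmax (10 microM if undefined), descending in half-log steps.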

[1] = curve of first compound, second compound 0.1 µM
[2] = curve of first compound, second compound 0.316 µM
[3] = curve of first compound, second compound 1 µM
[4] = curve of first compound, second compound 0.01 µM
[5] = curve of first compound, second compound 0.0316 µM
[6] = second compound 0.01 µM, first compound 0.00316 µM
[7] = second compound 0.01 µM, first compound 0.01 µM
[8] = second compound 0.01 µM, first compound 0.0316 µM
[9] = second compound 0.01 µM, first compound 0.1 µM
[10] = second compound 0.0316 µM, first compound 0.00316 µM
[11] = second compound 0.0316 µM, first compound 0.01 µM
[12] = second compound 0.0316 µM, first compound 0.0316 µM
[13] = second compound 0.0316 µM, first compound 0.1 µM
[14] = second compound 0.1 µM, first compound 0.00316 µM
[15] = second compound 0.1 µM, first compound 0.01 µM
[16] = second compound 0.1 µM, first compound 0.0316 µM
[17] = second compound 0.1 µM, first compound 0.1 µM
[18] = second compound 0.316 µM, first compound 0.00316 µM
[19] = second compound 0.316 µM, first compound 0.01 µM
[20] = second compound 0.316 µM, first compound 0.0316 µM
[21] = second compound 0.316 µM, first compound 0.1 µM
[22] = second compound 1 µM, first compound 0.00316 µM
[23] = second compound 1 µM, first compound 0.01 µM
[24] = second compound 1 µM, first compound 0.0316 µM
[25] = second compound 1 µM, first compound 0.1 µM
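Further: spheroids exposed to compounds for 7 days before readout.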

In the case of CC(C)(C)c1cnc(CSc2cnc(NC(=O)C3CCNCC3)s2)o1 + CC(C)NCC(C(=O)N1CCN(c2ncnc3c2C(C)CC3O)CC1)c1ccc(Cl)cc1, the IC50 [1] is reported as 107 nM, the IC50 [2] is reported as 137 nM and the IC50 [3] is reported as 55.2 nM. For the same compound, the IC50 (curve of first compound, second compound 3.16 µM) was 42.9 nM, the IC50 (curve of first compound, second compound 10 µM) was < 9.49 nM and the viability, T/C (second compound 0.1 µM, first compound 0.00949 µM) was 86.1%. The viability, T/C (second compound 0.1 µM, first compound 0.03 µM) was 116%, the viability, T/C (second compound 0.1 µM, first compound 0.0949 µM) was 55.3% and the viability, T/C (second compound 0.1 µM, first compound 0.3 µM) was 3.48%. It also gave a viability, T/C (second compound 0.1 µM, first compound 0.949 µM) of 3.84%, a viability, T/C (second compound 0.1 µM, first compound 3 µM) of 2.08% and a viability, T/C (second compound 0.316 µM, first compound 0.00949 µM) of 81.1%. For the same compound, the viability, T/C (second compound 0.316 µM, first compound 0.03 µM) was 89.9%, the viability, T/C (second compound 0.316 µM, first compound 0.0949 µM) was 71.9% and the viability, T/C (second compound 0.316 µM, first compound 0.3 µM) was 3.02%. It also gave a viability, T/C (second compound 0.316 µM, first compound 0.949 µM) of 2.73%, a viability, T/C (second compound 0.316 µM, first compound 3 µM) of 3.48% and a viability, T/C (second compound 1 µM, first compound 0.00949 µM) of 64.6%. It also gave a viability, T/C (second compound 1 µM, first compound 0.03 µM) of 65.4%, a viability, T/C (second compound 1 µM, first compound 0.0949 µM) of 36.7% and a viability, T/C (second compound 1 µM, first compound 0.3 µM) of 2.25%. It also gave a viability, T/C (second compound 1 µM, first compound 0.949 µM) of 2.57%, a viability, T/C (second compound 1 µM, first compound 3 µM) of 3.16% and a viability, T/C (second compound 3.16 µM, first compound 0.00949 µM) of 56.4%. The viability, T/C (second compound 3.16 µM, first compound 0.03 µM) was 55.7%, the viability, T/C (second compound 3.16 µM, first compound 0.0949 µM) was 36.6% and the viability, T/C (second compound 3.16 µM, first compound 0.3 µM) was 2.16%. For the same compound, the viability, T/C (second compound 3.16 µM, first compound 0.949 µM) was 3.96%, the viability, T/C (second compound 3.16 µM, first compound 3 µM) was 2.31% and the viability, T/C (second compound 10 µM, first compound 0.00949 µM) was 46.1%. The viability, T/C (second compound 10 µM, first compound 0.03 µM) was 44.2%, the viability, T/C (second compound 10 µM, first compound 0.0949 µM) was 11.5% and the viability, T/C (second compound 10 µM, first compound 0.3 µM) was 2.21%. It also gave a viability, T/C (second compound 10 µM, first compound 0.949 µM) of 1.45% and a viability, T/C (second compound 10 µM, first compound 3 µM) of 1.36%.

For CC(C)n1nc(-c2ccc3oc(N)nc3c2)c2c(N)ncnc21 + CCN1CCN(Cc2ccc(Nc3ncc(F)c(-c4cc(F)c5nc(C)n(C(C)C)c5c4)n3)nc2)CC1, the IC50 [4] was 4.4 nM, the IC50 [5] was 7.08 nM and the IC50 [1] was 5.03 nM. The IC50 [2] was 6.49 nM, the IC50 [3] was < 0.316 nM and the viability, T/C (second compound 0.01 µM, first compound 0.000316 µM) was 108%. It also gave a viability, T/C (second compound 0.01 µM, first compound 0.001 µM) of 72.6%, a viability, T/C [6] of 54.4% and a viability, T/C [7] of 44.2%. The viability, T/C [8] was 26.4%, the viability, T/C [9] was 22.2% and the viability, T/C (second compound 0.0316 µM, first compound 0.000316 µM) was 86.4%. For the same compound, the viability, T/C (second compound 0.0316 µM, first compound 0.001 µM) was 78.7%, the viability, T/C [10] was 60.7% and the viability, T/C [11] was 46.8%. For the same compound, the viability, T/C [12] was 27.5%, the viability, T/C [13] was 19.7% and the viability, T/C (second compound 0.1 µM, first compound 0.000316 µM) was 89.6%. It also gave a viability, T/C (second compound 0.1 µM, first compound 0.001 µM) of 76.1%, a viability, T/C [14] of 51.7% and a viability, T/C [15] of 45%. It also gave a viability, T/C [16] of 26.4%, a viability, T/C [17] of 20.2% and a viability, T/C (second compound 0.316 µM, first compound 0.000316 µM) of 80.1%. For the same compound, the viability, T/C (second compound 0.316 µM, first compound 0.001 µM) was 69.8%, the viability, T/C [18] was 61.5% and the viability, T/C [19] was 44.2%. It also gave a viability, T/C [20] of 28.7%, a viability, T/C [21] of 21.6% and a viability, T/C (second compound 1 µM, first compound 0.000316 µM) of 41.9%. For the same compound, the viability, T/C (second compound 1 µM, first compound 0.001 µM) was 52.7%, the viability, T/C [22] was 38.4% and the viability, T/C [23] was 31.9%. The viability, T/C [24] was 28.4% and the viability, T/C [25] was 23.1%.

Work on COc1c(OCCCN2CCOCC2)ccc2c3n(c(=NC(=O)c4cnc(N)nc4)nc12)CCN3 + CCN1CCN(Cc2ccc(Nc3ncc(F)c(-c4cc(F)c5nc(C)n(C(C)C)c5c4)n3)nc2)CC1 yielded an IC50 [4] of 14.7 nM, an IC50 [5] of 18.8 nM and an IC50 [1] of 21.9 nM. For the same compound, the IC50 [2] was 21.2 nM, the IC50 [3] was 12.4 nM and the viability, T/C [6] was 76.3%. The viability, T/C [7] was 49.2%, the viability, T/C [8] was 39.6% and the viability, T/C [9] was 29.9%. The viability, T/C (second compound 0.01 µM, first compound 0.316 µM) was 12.4%, the viability, T/C (second compound 0.01 µM, first compound 1 µM) was 3.84% and the viability, T/C [10] was 77.2%. It also gave a viability, T/C [11] of 53.8%, a viability, T/C [12] of 43.9% and a viability, T/C [13] of 32.4%. For the same compound, the viability, T/C (second compound 0.0316 µM, first compound 0.316 µM) was 11.2%, the viability, T/C (second compound 0.0316 µM, first compound 1 µM) was 2.33% and the viability, T/C [14] was 84%. For the same compound, the viability, T/C [15] was 60.9%, the viability, T/C [16] was 40.3% and the viability, T/C [17] was 34.4%. It also gave a viability, T/C (second compound 0.1 µM, first compound 0.316 µM) of 11.3%, a viability, T/C (second compound 0.1 µM, first compound 1 µM) of 2% and a viability, T/C [18] of 84.9%. It also gave a viability, T/C [19] of 63.2%, a viability, T/C [20] of 41.2% and a viability, T/C [21] of 29.9%. It also gave a viability, T/C (second compound 0.316 µM, first compound 0.316 µM) of 7.71%, a viability, T/C (second compound 0.316 µM, first compound 1 µM) of 3.06% and a viability, T/C [22] of 59.9%. The viability, T/C [23] was 51.7%, the viability, T/C [24] was 40.4% and the viability, T/C [25] was 29.8%. The viability, T/C (second compound 1 µM, first compound 0.316 µM) was 12% and the viability, T/C (second compound 1 µM, first compound 1 µM) was 2.02%.

Cc1nc(NC(=O)N2CCCC2C(N)=O)sc1-c1ccnc(C(C)(C)C(F)(F)F)c1 (configuration not stated) was tested, and the viability, T/C (compound 0.0316 µM) was 84.4% and 80.2%, the viability, T/C (compound 0.1 µM) was 73.3% and 72.6% and the viability, T/C (compound 0.316 µM) was 58.8% and 56.2%. The viability, T/C (compound 1 µM) was 40.9% and 42%, the viability, T/C (compound 3.16 µM) was 28.5% and 31.8% and the viability, T/C (compound 10 µM) was 9.2% and 11.3%. The IC50 (curve of compound) was 594 nM and 608 nM.
